Laboratory results published in paper PMC3566758 (Beilstein Journal of Organic Chemistry, 2013).
Values after ≈ are worked out from the molar mass of the structure shown. Where two headings read alike, the source gives them in different places.

Legend:
[1] = system: measles virus (MeV) recombinant; assay: microbe, parasite or virus in culture; format: cell-based; details: for EC50: Measles morbillivirus
[2] = set-up: method as in earlier work; details: ref 15 (Pharmacokinetics Study of JMN3-003. Unpublished results); cited from earlier work
measles virus (MeV) = assay: measles virus cytopathic effect (CPE) reduction assay; format: cell-based; details: Measles morbillivirus, read-out: MeV (CPE) 50% inhibitory concentration
Procedure: A small set of compounds was synthesized based on variations of 1 by replacing the p-methoxyphenyl group with other substituted phenyl rings or heterocyclic rings. The compounds were initially assayed in two screening assays: (1) a measles virus cytopathic effect (CPE) reduction assay and (2) a solubility assay based on laser nephelometry. Unfortunately, compounds with the highest aqueous solubilities (>100 µg/mL) had the poorest antiviral activity (i.e., 18a and 18e, Table 1).

[3] = microbe, parasite or virus in culture; format: cell-based; details: Influenza A virus, WSN, read-out: EC50 WSN
MeV = assay: virus yield reduction assay; format: cell-based; details: Measles morbillivirus, read-out: MeV 50% inhibitory concentration, virus yield reduction assay
[4] = averages of four experiments, highest concentration assessed 75 μM
[5] = pH 3, aqueous buffer, kinetic from dmso stock
[6] = pH 5, aqueous buffer, kinetic from dmso stock
[7] = pH 7.4, aqueous buffer, kinetic from dmso stock

SMILES	EC50 ([1]; read-out: EC50 MeV)	CC50 (in vitro)	IC50 (measles virus (MeV); [4])	solubility (physchem; [7])	EC50 [3]	further results
COc1ccc(-n2c(SC(C)C(=O)Nc3ccc(C)cc3Cl)nc3ccccc32)cc1 (stereo not shown) [Compound 1]	31 nM	> 50000 nM	3100 nM	< 15 µg/mL	13 nM	oral bioavailability [2]: low; solubility (physchem): < 15 µg/mL; solubility (physchem; [5]): < 15 µg/mL; solubility (physchem; [6]): < 15 µg/mL
Cc1ccc(NC(=O)C(C)Sc2nc3ccccc3n2-c2cccc(CCn3ncnn3)c2)c(Cl)c1 (stereo not shown) [Compound 18g]				< 15 µg/mL		IC50 (MeV): 50 nM
Cc1ccc(NC(=O)C(C)Sc2nc3ccccc3n2C2CCCN(C)C2)c(Cl)c1 (stereo not shown) [Compound 18b]				19 µg/mL (≈ 42.9 µM)		IC50 (measles virus (MeV)): > 290 nM
Cc1ccc(NC(=O)C(C)Sc2nc3ccccc3n2CCN2CCOCC2)c(Cl)c1 (stereo not shown) [Compound 18d]			4900 nM	22 µg/mL (≈ 47.9 µM)		
Cc1ccc(NC(=O)C(C)Sc2nc3ccccc3n2N2CCN(C)CC2)c(Cl)c1 (stereo not shown) [Compound 18c]			> 75000 nM	< 15 µg/mL		
Cc1ccc(NC(=O)C(C)Sc2nc3ccccc3n2-c2cccc(CCN3CCOCC3)c2)c(Cl)c1 (stereo not shown) [Compound 14b]	13 nM	> 50000 nM	200 nM	15 µg/mL (≈ 28 µM)	0.3 nM	solubility (physchem; [5]): 158 µg/mL (≈ 295 µM); solubility (physchem; [6]): 33 µg/mL (≈ 61.7 µM)
Cc1ccc(NC(=O)[C@@H](C)Sc2nc3ccccc3n2-c2ccc(CCN3CCOCC3)cc2)c(Cl)c1 [(R)-14c]	530 nM				120 nM	
Cc1ccc(NC(=O)[C@@H](C)Sc2nc3ccccc3n2-c2ccccc2CN2CCN(C)CC2)c(Cl)c1 [(R)-14a]	470 nM				120 nM	
Cc1ccc(NC(=O)C(C)Sc2nc3ccccc3n2-c2ccccc2CN2CCN(C)CC2)c(Cl)c1 (stereo not shown) [Compound 14a]	41 nM		179 nM	20 µg/mL (≈ 37.4 µM)	8 nM	solubility (physchem; [5]): > 300 µg/mL; solubility (physchem; [6]): 92 µg/mL (≈ 172 µM)
COc1ccc(-n2c(S[C@@H](C)C(=O)Nc3ccc(C)cc3Cl)nc3ccccc32)cc1 [(S)-1]	37 nM	> 50000 nM			5 nM	
Cc1ccc(NC(=O)[C@H](C)Sc2nc3ccccc3n2-c2ccc(CCN3CCOCC3)cc2)c(Cl)c1 [(S)-14c]	180 nM				36 nM	
Cc1ccc(NC(=O)C(C)Sc2nc3ccccc3n2CCN2CCNCC2)c(Cl)c1 (stereo not shown) [Compound 18e]			> 75000 nM	120 µg/mL (≈ 262 µM)		solubility (physchem; pH 7.4): > 100 µg/mL
Cc1ccc(NC(=O)[C@H](C)Sc2nc3ccccc3n2-c2cccc(CCN3CCOCC3)c2)c(Cl)c1 [(S)-14b]	11 nM	> 50000 nM			1 nM	EC50 ([1]; WSN, read-out: EC50 values against the two viruses): 1 to 11 nM
Cc1ccc(NC(=O)[C@H](C)Sc2nc3ccccc3n2-c2ccccc2CN2CCN(C)CC2)c(Cl)c1 [(S)-14a]	68 nM	25000 nM			4 nM	
Cc1ccc(NC(=O)C(C)Sc2nc3ccccc3n2-c2cccc(CN3CCOCC3)c2)c(Cl)c1 (stereo not shown) [Compound 18f]			270 nM	< 15 µg/mL		
Cc1ccc(NC(=O)[C@@H](C)Sc2nc3ccccc3n2-c2cccc(CCN3CCOCC3)c2)c(Cl)c1 [(R)-14b]	210 nM	> 50000 nM			110 nM	
COc1ccc(-n2c(S[C@H](C)C(=O)Nc3ccc(C)cc3Cl)nc3ccccc32)cc1 [(R)-1]	880 nM	> 50000 nM			160 nM	
Cc1ccc(NC(=O)C(C)Sc2nc3ccccc3n2-c2ccc(CCN3CCOCC3)cc2)c(Cl)c1 (stereo not shown) [Compound 14c]	110 nM		600 nM	25 µg/mL (≈ 46.7 µM)	43 nM	ΔEC50, (S)-enantiomer versus (R)-enantiomer ([1]; MeV and WSN EC50 comparisons): < 3 fold; solubility (physchem; [5]): 212 µg/mL (≈ 396 µM); solubility (physchem; [6]): 51 µg/mL (≈ 95.3 µM)
